Patent US5081148A, “Blocking agents of EDRF effect or formation for the treatment of shock” (Societe de Conseils de Recherches et d'Applications …, priority 1989, dated 1992)

Legend:
[1] = system: vascular reactivity (methoxamine); test: Vascular reactivity to methoxamine in pithed rats perfused with endotoxin (EDTX); format: in vivo, Male Sprague Dawley rats; settings: for inhibition of vascular hyporeactivity: pithed rats, endotoxin 300 μg/kg/h, 60 min
Description: Male Sprague Dawley rats (280-320 g) were pithed and perfused continuously with endotoxin (EDTX, Escherichia Coli lipopolysaccharide OIII: B4; 300 μg/kg/h) for 60 min.

[2] = Blood pressure in pithed rats perfused with endotoxin; format: in vivo, Male Sprague Dawley rats; settings: endotoxin 300 μg/kg/h, 60 min
Description: Male Sprague Dawley rats (280-320 g) were pithed and perfused continuously with endotoxin (EDTX, Escherichia Coli lipopolysaccharide OIII: B4; 300 μg/kg/h) for 60 min. […] A 60 min perfusion of endotoxin lipopolysaccharide (300 μg/kg/h) to pithed rats led to hypotension and impaired the vascular reactivity to pressor agents as observed in septic and endotoxinic shock in human. […] Their effects on blood pressure are however less marked. Association of blockers of cyclooxygenase (aspirin, indomethacin for instance . . . ) and blockers of EDRF results on a highly significative synergistic protective effect in both vascular hyperactivity and decrease of blood pressure induced by shock.

EDRF = test: Restoration of depressed response to catecholamines / inhibition of vascular hyporeactivity (general statement)
thoracic aorta rings = test: Contractile responses of thoracic aorta rings from endotoxin-treated rats (PE-induced contraction, loss of tonicity), organ bath; set-up: species or system Sprague Dawley rats; settings: rings from endotoxin-treated animals; compounds of the invention at 10, 30 or 100 μM, with or without endothelium
Description: Sprague Dawley rats (220-330 g) received a 10 mg/kg ip injection of Escherichia Coli endotoxin (0114B4 Sigma). After 3 hours, rats were sacrificed by cervical dislocation and the thoracic aorta removed and cleaned of the surrounding tissue. Rings 2 mm wide were suspended under a tension of 2 g at 37° C. in organ bath containing 10 ml of Krebs Henseleit physiological solution and gassed with 95% O2 /5% CO2. Contractile responses were measured using force displacement transducers (Auguet M., Delaflotte S., P. E. Chabrier, P. Braquet Comparative effects of endotelin and phorbol 12-13 dibutyrate in rat aorta. Life Sci. 45, 21, 2051-2059, 1989).
In some experiments, the endothelium was gently disrupted (-E). Phenylephrine (PE) induced contraction was stable over the time in control rings of animals receiving saline solution (0.9% NaCl) with (E+) or without (E-) endothelium. The arginine derivative (10, 30 or 100 μM) had no significant effect per se.
This phenomenon was accentuated with intact endothelium (E+).
In some experiments, the compounds of the invention were introduced in the bath 105 minutes after PE when the tissue had completely its tonicity. Under these conditions, the compounds of the invention, alone, were able to curatively and totally restore the contraction and therefore contribute extensively to vascular hyporesponsiveness to vasoconstrictor agents in shock. […]

| SMILES | inhibition of vascular hyporeactivity [1] | effects on blood pressure [2] | restoration of depressed response to catecholamines and inhibition of vascular hyporeactivity (EDRF) | also measured |
| --- | --- | --- | --- | --- |
| COC(=O)[C@@H](N)CCCNC(=N)N[N+](=O)[O-] [L-NAME, L-nitroarginine methyl ester] | inhibited in a dose dependent manner | less marked | able to restore depressed response to catecholamines and to effectively inhibit vascular hyporeactivity | – |
| CNC(=N)NCCC[C@H](N)C(=O)O [L-NMMA, L-N-monomethyl arginine] | inhibited in a dose dependent manner | less marked | able to restore depressed response to catecholamines and to effectively inhibit vascular hyporeactivity | – |
| N=C(N)NCCC[C@H](N)C(=O)O [L-arginine] | – | – | – | effect on loss of tonicity in endotoxin treated preparation (thoracic aorta rings): enhanced the loss of tonicity |
| COc1ccc(OC)c(C(O)C(C)N)c1 (stereo not drawn) [methoxamine, reference compound] | – | – | – | ED50 ([1]; Rattus norvegicus, control rats, cumulative dose-response): 0.079 ± 0.009 mg/kg |
| CNC(=N)NCCC[C@@H](N)C(=O)O [(D) N-methyl arginine, reference compound] | – | – | – | activity in the field of the present invention (EDRF): deprived of any activity |
| CC(=N)NCCC[C@H](N)C(=O)O [L-NIO, L-iminoethylornithine] | inhibited in a dose dependent manner | less marked | able to restore depressed response to catecholamines and to effectively inhibit vascular hyporeactivity | – |
